Earlier results, collected in PMC10747602, “Dose Response, Dosimetric, and Metabolic Evaluations of Replacement PFAS Perfluoro-(2,5,8-trimethyl-3,6,9-trioxadodecanoic) Acid (HFPO-TeA)” (Toxics, 2023).
Where two headings read alike, the source gives them in different places.

Assays:
[1] = male mice, 2.5 mg/kg/day orally for 28 days; cited from earlier work
[2] = parameters: method as in PMID 18661093; conditions: male rats, 5 mg/kg/day orally for 28 days; cited from earlier work
[3] = parameters: method as in PMID 21948869, PMID 36309054; conditions: cited from earlier work

In the case of `O=C(O)C(F)(F)C(F)(F)C(F)(F)C(F)(F)C(F)(F)C(F)(F)C(F)(F)F` [PFOA, perfluorooctanoic acid], the Kp [1] is given as 1.54, the Kp [2] is given as 5.88 and the “underestimation of Css values by previous IVIVE evaluations” value [3] is given as > 100 ×.
